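Cultured in 96-well plates, cells were exposed to test compound for 48 hours across five concentrations. TGI is the concentration that stops growth completely.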
Legend:
Experiment in all cases: NCI tumour cell line growth inhibition, 48 h
A549 NSCLC = tested on: A549 NSCLC
COLO 205 colon = tested on: COLO 205 colon
HCT-116 colon = tested on: HCT-116 colon
HCT-15 colon = tested on: HCT-15 colon
K-562 leukemia = tested on: K-562 leukemia
M14 melanoma = tested on: M14 melanoma
MDA-N = tested on: MDA-N
NCI-H226 lung = tested on: NCI-H226 lung
OVCAR-5 ovarian = tested on: OVCAR-5 ovarian
SF-295 CNS = tested on: SF-295 CNS
SF-539 CNS = tested on: SF-539 CNS
SK-MEL-2 melanoma = tested on: SK-MEL-2 melanoma
SN12C renal = tested on: SN12C renal
SR leukemia = tested on: SR leukemia
SW-620 colon = tested on: SW-620 colon
T-47D breast = tested on: T-47D breast
UACC-257 melanoma = tested on: UACC-257 melanoma
UO-31 renal = tested on: UO-31 renal
MALME-3M melanoma = tested on: MALME-3M melanoma
SNB-75 CNS = tested on: SNB-75 CNS

Compound: CCOP(=O)(OCC)/C(=C/NC(=S)c1ccncc1)C(=O)OC
- TGI (A549 NSCLC): > 100 µM
- TGI (COLO 205 colon): > 100 µM
- TGI (HCT-116 colon): > 100 µM
- TGI (HCT-15 colon): > 100 µM
- TGI (K-562 leukemia): > 100 µM
- TGI (M14 melanoma): > 100 µM
- TGI (MDA-N): > 100 µM
- TGI (NCI-H226 lung): > 100 µM
- TGI (OVCAR-5 ovarian): > 100 µM
- TGI (SF-295 CNS): > 100 µM
- TGI (SF-539 CNS): > 100 µM
- TGI (SK-MEL-2 melanoma): > 100 µM
- TGI (SN12C renal): > 100 µM
- TGI (SR leukemia): > 100 µM
- TGI (SW-620 colon): > 100 µM
- TGI (T-47D breast): > 100 µM
- TGI (UACC-257 melanoma): > 100 µM
- TGI (UO-31 renal): > 100 µM

Compound: Clc1ccc(OCc2nnc(CCCCCCCCc3nnc(COc4ccc(Cl)cc4Cl)n3Nc3ccccc3)n2Nc2ccccc2)c(Cl)c1
- TGI (A549 NSCLC): 64.4 µM
- TGI (COLO 205 colon): 3.38 µM
- TGI (HCT-116 colon): 25.1 µM
- TGI (HCT-15 colon): 35 µM
- TGI (M14 melanoma): 29.2 µM
- TGI (MALME-3M melanoma): 40.6 µM
- TGI (MDA-N): 27.7 µM
- TGI (NCI-H226 lung): 38 µM
- TGI (OVCAR-5 ovarian): 43.9 µM
- TGI (SF-295 CNS): 17.3 µM
- TGI (SF-539 CNS): 33.5 µM
- TGI (SK-MEL-2 melanoma): 24.8 µM
- TGI (SN12C renal): 38.1 µM
- TGI (SNB-75 CNS): 70.3 µM
- TGI (SW-620 colon): > 62.6 µM
- TGI (T-47D breast): > 100 µM
- TGI (UACC-257 melanoma): 36.2 µM
- TGI (UO-31 renal): 40 µM

Compound: CCCCCCCCCCCCN1[C@H]2CCC[C@H]2C(O)[C@@H]2CCC[C@@H]21 (stereo partly drawn)
- TGI (A549 NSCLC): > 100 µM
- TGI (COLO 205 colon): > 100 µM
- TGI (HCT-116 colon): > 100 µM
- TGI (HCT-15 colon): > 100 µM
- TGI (K-562 leukemia): > 100 µM
- TGI (M14 melanoma): > 100 µM
- TGI (MDA-N): > 100 µM
- TGI (NCI-H226 lung): > 100 µM
- TGI (OVCAR-5 ovarian): > 100 µM
- TGI (SK-MEL-2 melanoma): > 100 µM
- TGI (SN12C renal): > 100 µM
- TGI (SNB-75 CNS): > 100 µM
- TGI (SR leukemia): > 100 µM
- TGI (SW-620 colon): > 100 µM
- TGI (T-47D breast): 88.2 µM
- TGI (UACC-257 melanoma): > 100 µM

Compound: Cc1cccc(C)c1NC(=O)C(=O)CC(=O)/C=C/c1ccccc1
- TGI (A549 NSCLC): > 100 µM
- TGI (HCT-116 colon): > 100 µM
- TGI (HCT-15 colon): > 100 µM
- TGI (K-562 leukemia): > 100 µM
- TGI (M14 melanoma): > 100 µM
- TGI (MALME-3M melanoma): > 100 µM
- TGI (MDA-N): > 100 µM
- TGI (NCI-H226 lung): > 100 µM
- TGI (OVCAR-5 ovarian): > 100 µM
- TGI (SF-295 CNS): > 100 µM
- TGI (SF-539 CNS): > 100 µM
- TGI (SK-MEL-2 melanoma): > 100 µM
- TGI (SN12C renal): > 100 µM
- TGI (SNB-75 CNS): > 100 µM
- TGI (SW-620 colon): > 100 µM
- TGI (T-47D breast): > 100 µM
- TGI (UACC-257 melanoma): > 100 µM
- TGI (UO-31 renal): > 100 µM

Compound: O=C1/C(=C/c2ccc(OC(=O)c3ccccc3)cc2)CCC/C1=C\c1ccc(OC(=O)c2ccccc2)cc1
- TGI (A549 NSCLC): > 100 µM
- TGI (COLO 205 colon): > 100 µM
- TGI (HCT-116 colon): > 100 µM
- TGI (HCT-15 colon): > 100 µM
- TGI (M14 melanoma): > 100 µM
- TGI (MDA-N): > 100 µM
- TGI (OVCAR-5 ovarian): > 100 µM
- TGI (SF-295 CNS): > 100 µM
- TGI (SF-539 CNS): > 100 µM
- TGI (SK-MEL-2 melanoma): > 100 µM
- TGI (SN12C renal): > 100 µM
- TGI (SNB-75 CNS): > 100 µM
- TGI (SR leukemia): > 100 µM
- TGI (SW-620 colon): > 100 µM
- TGI (T-47D breast): > 100 µM
- TGI (UACC-257 melanoma): > 100 µM
- TGI (UO-31 renal): > 100 µM

Compound: CC1=NN(c2cccc(Cl)c2)C2(SCC(=O)N2c2nc3ccccc3s2)/C1=C\c1ccc(N(C)C)cc1 (stereo not drawn)
- TGI (HCT-116 colon): > 100 µM
- TGI (HCT-15 colon): > 100 µM
- TGI (K-562 leukemia): > 100 µM
- TGI (M14 melanoma): > 100 µM
- TGI (MDA-N): > 100 µM
- TGI (NCI-H226 lung): > 100 µM
- TGI (OVCAR-5 ovarian): > 100 µM
- TGI (SF-295 CNS): > 100 µM
- TGI (SF-539 CNS): > 100 µM
- TGI (SK-MEL-2 melanoma): 57.5 µM
- TGI (SR leukemia): > 100 µM
- TGI (SW-620 colon): > 100 µM
- TGI (T-47D breast): > 100 µM
- TGI (UACC-257 melanoma): > 100 µM
- TGI (UO-31 renal): > 100 µM

Compound: COc1cc(C2SCC(=O)N2c2ccc(-n3c(-c4ccccc4)nc4ccccc4c3=O)cc2)cc(OC)c1OC (stereo not drawn)
- TGI (A549 NSCLC): > 100 µM
- TGI (COLO 205 colon): > 100 µM
- TGI (HCT-116 colon): > 100 µM
- TGI (HCT-15 colon): > 100 µM
- TGI (K-562 leukemia): > 100 µM
- TGI (MDA-N): > 100 µM
- TGI (OVCAR-5 ovarian): > 100 µM
- TGI (SF-295 CNS): > 100 µM
- TGI (SF-539 CNS): > 100 µM
- TGI (SK-MEL-2 melanoma): > 100 µM
- TGI (SN12C renal): > 100 µM
- TGI (SR leukemia): > 100 µM
- TGI (SW-620 colon): > 100 µM
- TGI (T-47D breast): > 100 µM
- TGI (UACC-257 melanoma): > 100 µM
- TGI (UO-31 renal): 71.4 µM

Source: PubChem BioAssay (NCI)
